Measured values published in publication PMC12040169 (PLOS Biology, 2025).

Assay: in vitro
Conditions: human, hela cells, % viability
In the case of `NC(=O)C1(Cc2ccccc2-c2ccccc2)CCN(C(=O)CCc2ccccc2)CC1` [CBK285595], the viability at 28.5 h, 10 µM is reported as 107%. `CN(C(=O)c1c[nH]nc1-c1ccc(CNC(=O)Cc2ccc(F)cc2)cc1)c1ccccc1` [CBK285599] gave a viability at 28.5 h, 10 µM of 95.9%. `Cc1ccc(C(=O)NCc2ccc(-c3n[nH]cc3C(=O)N(C)c3ccccc3)cc2)cc1` [CBK285600] gave a viability at 28.5 h, 10 µM of 98.7%. In the case of `O=C(c1ccccc1)N1C[C@@H](c2ccsc2)[C@@H]2CN(Cc3ccccc3)CC[C@@H]21` [CBK285602], the viability at 28.5 h, 10 µM is reported as 104%. In the case of `O=C(c1ccccc1)N1C[C@@H](c2ccsc2)[C@@H]2CN(Cc3cccc(Cl)c3)CC[C@@H]21` [CBK285603], the viability at 28.5 h, 10 µM is reported as 108%. `O=C(c1ccccc1)N1C[C@H](c2ccsc2)[C@H]2CN(Cc3ccsc3)CC[C@H]21` [CBK285604] showed a viability at 28.5 h, 10 µM of 118%. `COc1cccc(C(NC(=O)Cc2ccc(-n3nnnc3C)cc2)c2ccccc2)c1` (stereo not drawn) [CBK285605] gave a viability at 28.5 h, 10 µM of 93.4%. Work on `O=C(NCCc1ccc(Cl)cc1)C1(Cc2cccc(-c3cccnc3)c2)CCOCC1` [CBK285606] yielded a viability at 28.5 h, 10 µM of 96.7%. With `COc1cccc([C@H]2CN(C(=O)c3ccccc3)[C@@H]3CCN(Cc4ccccc4C)C[C@H]23)c1` [CBK285610] the viability at 28.5 h, 10 µM was 98.6%. For `O=C(c1ccccc1)N1C[C@@H](c2ccsc2)[C@@H]2CN(Cc3ccc(Cl)cc3)CC[C@@H]21` [CBK285615], the viability at 28.5 h, 10 µM was 100%. With `COc1cccc(CN2CC[C@H]3[C@@H](C2)[C@H](c2ccsc2)CN3C(=O)c2ccccc2)c1` [CBK285616] the viability at 28.5 h, 10 µM was 97.5%. In the case of `Cc1ccccc1CN1CC[C@H]2[C@@H](C1)[C@H](c1ccsc1)CN2C(=O)c1ccccc1` [CBK285618], the viability at 28.5 h, 10 µM is reported as 100%. Work on `Cc1cccc(CN2CC[C@H]3[C@@H](C2)[C@H](c2ccsc2)CN3C(=O)c2ccccc2)c1` [CBK285619] yielded a viability at 28.5 h, 10 µM of 106%. For `Cc1ccccc1Cc1cccc(C2CCN(C(=O)Cc3ccccc3)CC2)n1` [CBK285625], the viability at 28.5 h, 10 µM was 94.7%. For `COc1ccc(CN2CCC(c3ncc(C(=O)Nc4ccc(F)cc4)c(C)n3)CC2)cc1` [CBK285629], the viability at 28.5 h, 10 µM was 101%. `O=C(NC1(c2ccccc2)CCCC1)c1ccc(=O)n(CC(=O)N2CCCCC2)c1` [CBK285631] gave a viability at 28.5 h, 10 µM of 90.5%. In the case of `Cc1ccc(S(=O)(=O)NCc2ccc(-c3nn(C)cc3-c3ccncc3C)cc2)cc1` [CBK285632], the viability at 28.5 h, 10 µM is reported as 89.2%. Work on `Cc1cnccc1-c1cn(C)nc1-c1ccc(CNC(=O)c2cccc(N(C)C)c2)cc1` [CBK285633] yielded a viability at 28.5 h, 10 µM of 86.5%. With `Cc1cnc2c(C(=O)N3CC(C(=O)N4CCN(c5ccccc5)CC4)C3)cnn2c1` [CBK285641] the viability at 28.5 h, 10 µM was 92.4%. `CCC(=O)N1CCCC1c1nc(C)c2c(n1)N(Cc1ccccc1OC)CCC2` (stereo not drawn) [CBK285642] gave a viability at 28.5 h, 10 µM of 91.9%. For `Cc1nc(-c2ccc(CNS(=O)(=O)c3ccc(Cl)cc3)cc2)ccc1C(N)=O` [CBK285643], the viability at 28.5 h, 10 µM was 90.5%. Work on `Cc1ccc(-c2cc(C(=O)NCc3ccc(-c4ccc(C(N)=O)c(C)n4)cc3)no2)cc1` [CBK285644] yielded a viability at 28.5 h, 10 µM of 116%. For `COc1cc(CN2C[C@@H](c3ccccc3)[C@@H]3NC(=O)CCCC[C@H]32)cc(OC)c1` [CBK285646], the viability at 28.5 h, 10 µM was 89.6%. `Nc1ncc(-c2ccc(C(F)(F)F)cc2)c(C2CCCN(C(=O)CN3CCCC3)C2)n1` (stereo not drawn) [CBK285649] gave a viability at 28.5 h, 10 µM of 91.6%. Work on `COc1ccccc1-c1ccc(NC(=O)CCc2nc3ccccc3[nH]2)cc1` [CBK285651] yielded a viability at 28.5 h, 10 µM of 103%. Compound `Cc1ccc(C)c(C2CCCN2C(=O)c2ccc(=O)n(CC(=O)N(C)c3ccccc3)c2)c1` (stereo not drawn) [CBK285654] has a viability at 28.5 h, 10 µM of 97.5%. With `O=C(c1ccccc1F)N1C[C@H](c2ccsc2)[C@H]2CN(Cc3cccc(F)c3)CC[C@H]21` [CBK285660] the viability at 28.5 h, 10 µM was 120%. For `O=C(c1ccccc1F)N1C[C@H](c2ccsc2)[C@H]2CN(Cc3ccsc3)CC[C@H]21` [CBK285661], the viability at 28.5 h, 10 µM was 107%. Compound `CN(C(=O)Cn1cc(C(=O)NCC(C)(C)c2ccc(F)cc2)ccc1=O)c1ccccc1` [CBK285662] has a viability at 28.5 h, 10 µM of 108%. `Cc1nc(CC(NC(=O)C(c2ccccc2)c2ccccc2)c2ccc(F)cc2)cc(=O)[nH]1` (stereo not drawn) [CBK285669] showed a viability at 28.5 h, 10 µM of 101%. Compound `COc1ccc(-c2csc(CCNC(=O)Cc3c[nH]c(=O)[nH]c3=O)n2)cc1` [CBK285670] has a viability at 28.5 h, 10 µM of 92.4%. `COc1cccc(CNC(=O)c2cc3c(nc2N)CCN(Cc2cccc(C)c2OC)C3)c1` [CBK285682] gave a viability at 28.5 h, 10 µM of 98.6%. With `O=C(Nc1ccc(-c2ccc(F)cc2)cc1)c1ccc(N2C(=O)CCC2=O)cc1` [CBK285683] the viability at 28.5 h, 10 µM was 98%. With `CNC(=O)C1(Cc2ccccc2-c2cccs2)CCN(C(=O)COc2ccccc2)CC1` [CBK285684] the viability at 28.5 h, 10 µM was 118%. Work on `CNC(=O)C1(Cc2ccccc2-c2cccs2)CCN(C(=O)c2ccccc2OC)CC1` [CBK285685] yielded a viability at 28.5 h, 10 µM of 107%. With `CNC(=O)C1(Cc2ccccc2-c2cccs2)CCN(C(=O)Cc2cccc(C)c2)CC1` [CBK285686] the viability at 28.5 h, 10 µM was 105%. Compound `Cc1ccc2c(c1)C(=O)CC1(CCN(C(=O)Cc3c(C)[nH]c(=O)[nH]c3=O)CC1)O2` [CBK285688] has a viability at 28.5 h, 10 µM of 91.6%. Work on `CCNC(=O)C1(Cc2ccccc2-c2ccccc2)CCN(C(=O)c2cccc(F)c2)CC1` [CBK285689] yielded a viability at 28.5 h, 10 µM of 88.7%. Work on `NC(=O)C1(Cc2ccccc2-c2cccc(F)c2)CCN(C(=O)c2cccc(F)c2)CC1` [CBK285693] yielded a viability at 28.5 h, 10 µM of 96.8%. Work on `CCCNC(=O)C1(Cc2ccccc2-c2cccs2)CCN(C(=O)c2ccccc2)CC1` [CBK285694] yielded a viability at 28.5 h, 10 µM of 95%. In the case of `CNC(=O)C1(Cc2ccccc2-c2ccccc2)CCN(C(=O)Cc2ccccc2)CC1` [CBK285695], the viability at 28.5 h, 10 µM is reported as 93.3%. `CNC(=O)C1(Cc2ccccc2-c2ccccc2)CCN(C(=O)CCC2CCCC2)CC1` [CBK285696] showed a viability at 28.5 h, 10 µM of 89.4%. Work on `CNC(=O)C1(Cc2ccccc2-c2cccs2)CCN(C(=O)Cc2ccc(C)cc2)CC1` [CBK285697] yielded a viability at 28.5 h, 10 µM of 95%. In the case of `CCNC(=O)C1(Cc2ccccc2-c2ccccc2)CCN(C(=O)c2csc(C)c2)CC1` [CBK285698], the viability at 28.5 h, 10 µM is reported as 93.3%. For `CCNC(=O)C1(Cc2ccccc2-c2ccccc2)CCN(C(=O)c2ccccc2)CC1` [CBK285700], the viability at 28.5 h, 10 µM was 109%. Work on `Cc1nc(CN2[C@H]3CCCCC(=O)N[C@@]3(C)C[C@H]2c2cccc(C(F)(F)F)c2)cs1` [CBK285701] yielded a viability at 28.5 h, 10 µM of 91.1%. Compound `CC(C)(Oc1ccc(F)cc1)C(=O)N1CCC(C(=O)NCCc2ccccc2)C1` (stereo not drawn) [CBK285702] has a viability at 28.5 h, 10 µM of 101%. `O=C(C1CCN(S(=O)(=O)c2ccc(F)cc2)C1)N1CCN(C2CCCC2)CC1` (stereo not drawn) [CBK285703] showed a viability at 28.5 h, 10 µM of 96.6%. In the case of `Cc1nc2ccccc2c(=O)n1CCC(=O)N1CCc2sccc2C1c1ccco1` (stereo not drawn) [CBK285706], the viability at 28.5 h, 10 µM is reported as 94.3%. `O=C(Nc1nc2c(s1)CCCCC2)C1CCN(S(=O)(=O)c2ccc(F)cc2)C1` (stereo not drawn) [CBK285708] showed a viability at 28.5 h, 10 µM of 111%. Work on `Cn1c(-c2ccccc2)cnc1NC(=O)C1CCN(S(=O)(=O)c2ccc(F)cc2)C1` (stereo not drawn) [CBK285709] yielded a viability at 28.5 h, 10 µM of 95.6%. With `COc1ccc(C2(C(=O)Nc3ccc(-c4ccccc4OC)cc3)CCOCC2)cc1` [CBK285710] the viability at 28.5 h, 10 µM was 89.5%. `COc1ccccc1-c1ccc(NC(=O)CCn2cnc3ccccc3c2=O)cc1` [CBK285711] showed a viability at 28.5 h, 10 µM of 95.2%. With `COc1cccc(C(NC(=O)C2COc3ccc(OC)cc3C2)c2ccccc2)c1` (stereo not drawn) [CBK285713] the viability at 28.5 h, 10 µM was 97.7%. `Cc1ccccc1-c1ccccc1CC1(C(=O)N(C)C)CCN(C(=O)CC(C)(C)C)CC1` [CBK285715] showed a viability at 28.5 h, 10 µM of 95.1%. For `CCNC(=O)C1(Cc2ccccc2-c2ccccc2C)CCN(C(=O)c2ccccc2)CC1` [CBK285716], the viability at 28.5 h, 10 µM was 96.6%. `CCNC(=O)C1(Cc2ccccc2-c2ccccc2C)CCN(C(=O)C2CCCCC2)CC1` [CBK285717] showed a viability at 28.5 h, 10 µM of 106%. `CNC(=O)C1(Cc2cccc(-c3cccs3)c2)CCN(C(=O)c2ccccc2)CC1` [CBK285720] showed a viability at 28.5 h, 10 µM of 88.3%. `Cc1ccccc1-c1ccccc1CC1(C(N)=O)CCN(C(=O)c2ccccc2)CC1` [CBK285721] gave a viability at 28.5 h, 10 µM of 89.9%. With `COc1cccc(C(=O)N2CCC(Cc3ccccc3-c3ccccc3C)(C(N)=O)CC2)c1` [CBK285722] the viability at 28.5 h, 10 µM was 94.5%. For `Cc1ccccc1-c1ccccc1CC1(C(N)=O)CCN(C(=O)Cc2ccccc2)CC1` [CBK285724], the viability at 28.5 h, 10 µM was 106%. Compound `Cc1ccccc1-c1ccccc1CC1(C(N)=O)CCN(C(=O)CCc2ccccc2)CC1` [CBK285725] has a viability at 28.5 h, 10 µM of 102%. `COc1cccc(C(=O)N2CCC(Cc3ccccc3-c3ccccc3)(C(N)=O)CC2)c1` [CBK285729] gave a viability at 28.5 h, 10 µM of 93.6%. `Cc1cccc(CC(=O)N2CCC(Cc3ccccc3-c3ccccc3)(C(N)=O)CC2)c1` [CBK285731] showed a viability at 28.5 h, 10 µM of 103%. With `CNC(=O)C1(Cc2cccc(-c3cccs3)c2)CCN(C(=O)COc2ccccc2)CC1` [CBK285732] the viability at 28.5 h, 10 µM was 95.5%. Work on `O=C(Nc1cccc(-c2cccc(F)c2)c1)c1ccccc1Cn1cncn1` [CBK285735] yielded a viability at 28.5 h, 10 µM of 87.4%. Compound `COc1cccc(C(NC(=O)C2COc3c(cccc3OC)C2)c2ccccc2)c1` (stereo not drawn) [CBK285736] has a viability at 28.5 h, 10 µM of 94.7%. Work on `COc1ccc(C(NC(=O)c2ccc(N3C(=O)CCC3=O)cc2)c2ccccc2)cc1` (stereo not drawn) [CBK285737] yielded a viability at 28.5 h, 10 µM of 93%. Compound `COc1cccc(CC(=O)N2CCC(Cc3cccc(-c4cccs4)c3)(C(N)=O)CC2)c1` [CBK285738] has a viability at 28.5 h, 10 µM of 96.4%. `NC(=O)C1(Cc2cccc(-c3cccs3)c2)CCN(C(=O)COc2ccccc2)CC1` [CBK285741] gave a viability at 28.5 h, 10 µM of 103%. `CNC(=O)C1(Cc2cccc(-c3cccs3)c2)CCN(C(=O)Cc2ccccc2)CC1` [CBK285745] gave a viability at 28.5 h, 10 µM of 93.3%. `CNC(=O)C1(Cc2ccccc2-c2cccs2)CCN(C(=O)Cc2ccccc2)CC1` [CBK285746] gave a viability at 28.5 h, 10 µM of 90.8%. For `COc1ccccc1-c1ccc(NC(=O)C2(c3cccc(F)c3)CCOCC2)cc1` [CBK285747], the viability at 28.5 h, 10 µM was 103%. `COc1ccc(C(NC(=O)c2ccc(C(C)N3CCOCC3)o2)c2ccccc2)cc1` (stereo not drawn) [CBK285748] gave a viability at 28.5 h, 10 µM of 112%. In the case of `CC(C)NC(=O)C1(Cc2ccc(-c3ccccc3)cc2)CCN(C(=O)C2CCC2)CC1` [CBK285750], the viability at 28.5 h, 10 µM is reported as 102%. For `CC(C)NC(=O)C1(Cc2ccc(-c3ccccc3)cc2)CCN(C(=O)C2CCCC2)CC1` [CBK285751], the viability at 28.5 h, 10 µM was 101%. `Cc1cccc(CC(=O)N2CCC(Cc3cccc(-c4cccs4)c3)(C(N)=O)CC2)c1` [CBK285752] showed a viability at 28.5 h, 10 µM of 107%.

Same assay, conditions: human, hela cells, % viability, bulk resorufin, single well
`O=C(CCC1C(=O)NC(=O)NC1=O)Nc1ccc(Oc2ccc(F)cc2)cc1` [CBK285712] gave a viability at 28.5 h, 10 µM of 88%.
